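Test compounds were applied to cells in 96-well plates for 48 hours at 5 doses. GI50 is the concentration that inhibits growth by half.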 Calls of active or inactive are those of the source. Rule as the data show it: active = GI50 up to about 1.1 µM and inactive = higher.
How the values were obtained:
Experiment in all cases: growth of human tumour cells (NCI), 48 h
SNB-75 = system: SNB-75
OVCAR-3 = system: OVCAR-3
COLO 205 = system: COLO 205
MCF7 = system: MCF7
NCI-H522 = system: NCI-H522
CCRF-CEM = system: CCRF-CEM
A498 = system: A498
MDA-MB-435 = system: MDA-MB-435
IGROV-1 = system: IGROV-1
MDA-MB-231 = system: MDA-MB-231
EKVX = system: EKVX
MOLT-4 = system: MOLT-4
HCT-116 = system: HCT-116
HOP-92 = system: HOP-92
HT-29 = system: HT-29
UO-31 = system: UO-31
OVCAR-8 = system: OVCAR-8
RPMI-8226 = system: RPMI-8226
SK-MEL-28 = system: SK-MEL-28
DU-145 = system: DU-145
786-0 = system: 786-0
UACC-62 = system: UACC-62
NCI/ADR-RES = system: NCI/ADR-RES
HCT-15 = system: HCT-15
U-251 = system: U-251
SK-MEL-5 = system: SK-MEL-5
CAKI-1 = system: CAKI-1
SW-620 = system: SW-620
OVCAR-4 = system: OVCAR-4
M14 = system: M14
K562 = system: K562
OVCAR-5 = system: OVCAR-5
KM12 = system: KM12
LOX IMVI = system: LOX IMVI
SK-OV-3 = system: SK-OV-3
T47D = system: T47D
SF-268 = system: SF-268
TK-10 = system: TK-10
Hs-578T = system: Hs-578T
NCI-H23 = system: NCI-H23
HOP-62 = system: HOP-62
A549 = system: A549
ACHN = system: ACHN
SNB-19 = system: SNB-19
NCI-H226 = system: NCI-H226
UACC-257 = system: UACC-257
HCC 2998 = system: HCC 2998
SN12C = system: SN12C
BT-549 = system: BT-549
SK-MEL-2 = system: SK-MEL-2
NCI-H460 = system: NCI-H460
PC-3 = system: PC-3
MDA-N = system: MDA-N
SF-295 = system: SF-295
RXF 393 = system: RXF 393
HL-60 = system: HL-60
SF-539 = system: SF-539
Malme-3M = system: Malme-3M

## COc1ccc2c(c1)c1c(n2CCN(C)C)-c2cccc(OC)c2CC1
SNB-75
  GI50: 5.43 µM (inactive)
OVCAR-3
  GI50: 16.1 µM (inactive)
COLO 205
  GI50: 6.62 µM (inactive)
MCF7
  GI50: 13.2 µM (inactive)
NCI-H522
  GI50: 3.88 µM (inactive)
CCRF-CEM
  GI50: 2.65 µM (inactive)
A498
  GI50: 19.1 µM (inactive)
MDA-MB-435
  GI50: 12 µM (inactive)
IGROV-1
  GI50: 18.5 µM (inactive)
MDA-MB-231
  GI50: 13.7 µM (inactive)
EKVX
  GI50: 14.4 µM (inactive)
MOLT-4
  GI50: 7.14 µM (inactive)
HCT-116
  GI50: 13.3 µM (inactive)
HOP-92
  GI50: 17.7 µM (inactive)
HT-29
  GI50: 3.3 µM (inactive)
UO-31
  GI50: 14.9 µM (inactive)
OVCAR-8
  GI50: 18.7 µM (inactive)
RPMI-8226
  GI50: 2.05 µM (inactive)
SK-MEL-28
  GI50: 14.2 µM (inactive)
DU-145
  GI50: 17.7 µM (inactive)
786-0
  GI50: 22.3 µM (inactive)
UACC-62
  GI50: 15.2 µM (inactive)
NCI/ADR-RES
  GI50: 17.5 µM (inactive)
HCT-15
  GI50: 15.3 µM
U-251
  GI50: 11.6 µM (inactive)
SK-MEL-5
  GI50: 10.4 µM (inactive)
CAKI-1
  GI50: 13.1 µM (inactive)
SW-620
  GI50: > 10 µM (inactive)
OVCAR-4
  GI50: 15.8 µM (inactive)
M14
  GI50: 11 µM (inactive)
K562
  GI50: 2.02 µM (inactive)
OVCAR-5
  GI50: 15.7 µM (inactive)
KM12
  GI50: 11.2 µM (inactive)
LOX IMVI
  GI50: 13.4 µM (inactive)
SK-OV-3
  GI50: 18.2 µM (inactive)
T47D
  GI50: 10 µM (inactive)
SF-268
  GI50: 17.9 µM (inactive)
TK-10
  GI50: 19.2 µM (inactive)
Hs-578T
  GI50: 16.3 µM (inactive)
NCI-H23
  GI50: 18.8 µM (inactive)
HOP-62
  GI50: 13.8 µM (inactive)
A549
  GI50: 12.3 µM (inactive)
ACHN
  GI50: 17.9 µM (inactive)
SNB-19
  GI50: 18.8 µM (inactive)
NCI-H226
  GI50: 4.49 µM (inactive)
UACC-257
  GI50: 17.3 µM (inactive)
HCC 2998
  GI50: 11.6 µM (inactive)
SN12C
  GI50: 13.7 µM (inactive)
BT-549
  GI50: 20 µM (inactive)
SK-MEL-2
  GI50: 15.6 µM (inactive)
NCI-H460
  GI50: 14.6 µM (inactive)
PC-3
  GI50: 11.6 µM (inactive)
MDA-N
  GI50: 11 µM (inactive)
SF-295
  GI50: 13.5 µM (inactive)

## COC(=O)C1=CCC[C@H]2[C@@]1(COC(C)=O)CC[C@@H](C)[C@]2(C)CC(=O)c1ccoc1
SNB-75
  GI50: 12.7 µM (inactive)
OVCAR-3
  GI50: 15.7 µM (inactive)
COLO 205
  GI50: 12.2 µM (inactive)
MCF7
  GI50: 16.1 µM (inactive)
RXF 393
  GI50: 19.6 µM (inactive)
NCI-H522
  GI50: 7.87 µM (inactive)
CCRF-CEM
  GI50: 10.3 µM (inactive)
A498
  GI50: 16.7 µM (inactive)
MDA-MB-435
  GI50: 16.7 µM (inactive)
IGROV-1
  GI50: 15.9 µM (inactive)
MDA-MB-231
  GI50: 17.2 µM (inactive)
EKVX
  GI50: 24.3 µM (inactive)
MOLT-4
  GI50: 10.5 µM (inactive)
HCT-116
  GI50: 9.91 µM (inactive)
HOP-92
  GI50: 10.9 µM (inactive)
HT-29
  GI50: 8.65 µM (inactive)
UO-31
  GI50: 13.4 µM (inactive)
OVCAR-8
  GI50: 17.9 µM (inactive)
HL-60
  GI50: 10.8 µM (inactive)
RPMI-8226
  GI50: 11.4 µM (inactive)
DU-145
  GI50: 21.5 µM (inactive)
786-0
  GI50: 15.2 µM (inactive)
UACC-62
  GI50: 7.93 µM (inactive)
NCI/ADR-RES
  GI50: 14.7 µM (inactive)
HCT-15
  GI50: 13.9 µM
U-251
  GI50: 21.2 µM (inactive)
SK-MEL-5
  GI50: 8.89 µM (inactive)
CAKI-1
  GI50: 18.6 µM (inactive)
SW-620
  GI50: 21.1 µM (inactive)
OVCAR-4
  GI50: 14.5 µM (inactive)
SF-539
  GI50: 10.9 µM (inactive)
M14
  GI50: 23.5 µM (inactive)
OVCAR-5
  GI50: 49 µM (inactive)
KM12
  GI50: 14.4 µM (inactive)
LOX IMVI
  GI50: 10.8 µM (inactive)
SK-OV-3
  GI50: 47.5 µM (inactive)
T47D
  GI50: 8.47 µM (inactive)
SF-268
  GI50: 27.2 µM (inactive)
TK-10
  GI50: 18.2 µM (inactive)
Hs-578T
  GI50: 13.4 µM (inactive)
NCI-H23
  GI50: 13.8 µM (inactive)
A549
  GI50: 19 µM (inactive)
ACHN
  GI50: 16.9 µM (inactive)
SNB-19
  GI50: 27.9 µM (inactive)
NCI-H226
  GI50: 15.8 µM (inactive)
UACC-257
  GI50: 18.7 µM (inactive)
HCC 2998
  GI50: 12.9 µM (inactive)
SN12C
  GI50: 17.8 µM (inactive)
BT-549
  GI50: 10.9 µM (inactive)
SK-MEL-2
  GI50: 15.7 µM (inactive)
NCI-H460
  GI50: 14.3 µM (inactive)
PC-3
  GI50: 14.7 µM (inactive)
MDA-N
  GI50: 16.5 µM (inactive)
SF-295
  GI50: 19.3 µM (inactive)

## COc1c2c(cc3c1C(=O)c1c(O)cccc1C3=O)CC(O)CC2 (configuration not stated)
SNB-75
  GI50: 34.8 µM (inactive)
OVCAR-3
  GI50: > 100 µM (inactive)
COLO 205
  GI50: > 100 µM (inactive)
MCF7
  GI50: > 100 µM (inactive)
CCRF-CEM
  GI50: > 100 µM (inactive)
A498
  GI50: 22.8 µM (inactive)
MDA-MB-435
  GI50: > 100 µM (inactive)
IGROV-1
  GI50: 85.5 µM (inactive)
MDA-MB-231
  GI50: 21.6 µM (inactive)
EKVX
  GI50: 29.8 µM (inactive)
MOLT-4
  GI50: > 100 µM (inactive)
HCT-116
  GI50: 24.6 µM (inactive)
HOP-92
  GI50: 18.7 µM (inactive)
HT-29
  GI50: > 100 µM (inactive)
UO-31
  GI50: 56.9 µM (inactive)
OVCAR-8
  GI50: 40.5 µM (inactive)
HL-60
  GI50: > 100 µM (inactive)
SK-MEL-28
  GI50: > 100 µM (inactive)
DU-145
  GI50: 57.7 µM (inactive)
786-0
  GI50: 25.6 µM (inactive)
UACC-62
  GI50: 28.5 µM (inactive)
NCI/ADR-RES
  GI50: 35.8 µM (inactive)
HCT-15
  GI50: 35.8 µM
U-251
  GI50: 50.9 µM (inactive)
SK-MEL-5
  GI50: > 100 µM (inactive)
CAKI-1
  GI50: > 100 µM (inactive)
SW-620
  GI50: > 100 µM (inactive)
OVCAR-4
  GI50: > 100 µM (inactive)
SF-539
  GI50: 28.8 µM (inactive)
M14
  GI50: 32 µM (inactive)
K562
  GI50: > 100 µM (inactive)
OVCAR-5
  GI50: > 100 µM (inactive)
KM12
  GI50: > 100 µM (inactive)
LOX IMVI
  GI50: > 100 µM (inactive)
SK-OV-3
  GI50: 21.5 µM (inactive)
T47D
  GI50: 7.18 µM (inactive)
TK-10
  GI50: 50.5 µM (inactive)
Hs-578T
  GI50: 26.7 µM (inactive)
NCI-H23
  GI50: 20.1 µM (inactive)
HOP-62
  GI50: 19.3 µM (inactive)
Malme-3M
  GI50: 49.8 µM (inactive)
A549
  GI50: > 100 µM (inactive)
ACHN
  GI50: 23.6 µM (inactive)
SNB-19
  GI50: 19.7 µM (inactive)
NCI-H226
  GI50: 54.5 µM (inactive)
UACC-257
  GI50: > 100 µM (inactive)
HCC 2998
  GI50: > 100 µM (inactive)
SN12C
  GI50: > 100 µM (inactive)
BT-549
  GI50: 19.5 µM (inactive)
SK-MEL-2
  GI50: > 100 µM (inactive)
NCI-H460
  GI50: > 100 µM (inactive)
PC-3
  GI50: 67.9 µM (inactive)
MDA-N
  GI50: > 100 µM (inactive)
SF-295
  GI50: 19.2 µM (inactive)
